Source: US20200016086A1, “Nanoparticulate Materials and Methods for Targeting Iron Acquisition and Metabolism for Treating Bacterial Infections” (KENT STATE UNIVERSITY, priority 2017, published 2020)

What was measured:
Staphylococcus aureus = test: Bacterial cytotoxicity / growth inhibition of S. aureus in TSB medium (OD600); assay type: cell-based; details: concentration range of 10 μM to 400 μM
[1] = assay type: physicochemical; details: buffer
Procedure: The kinetics of Fe^2+ removal was followed by measuring the decrease of Fe^2+ ion concentration in aqueous solution where the dialysis bag containing the PVP-coated CaPB NPs was immersed. The simultaneous increase of Ca^2+ ion concentration in the same solution was also determined quantitatively by AAS to verify the kinetics (FIG. 5b).

Compound	effect on growth of S. aureus (Staphylococcus aureus)	half-life T1/2 of Fe^2+ removal [1]
[Ca+2].[Cl-].[Cl-] [CaCl2]	no effect on growth	–
KCa[Fe^III(CN)6].n H2O [CaPB^III NPs]	–	55 min
